Legend:
Conditions in all cases: three weeks after treatment
[1] = test system: Lolium perenne; test: Post-emergence herbicidal evaluation, LOLPE
[2] = test system: Hordeum vulgare; test: Post-emergence herbicidal evaluation, HORVW
[3] = test system: Apera spica venti; test: Pre-emergence herbicidal evaluation, APESV; type: in vivo
Description: (§1) The treated pots are then placed on greenhouse benches, watered and cared for in accordance with conventional greenhouse procedures.

[4] = test system: Zea mays; test: Post-emergence herbicidal evaluation, ZEAMX
[5] = test system: Amaranthus tuberculatus; test: Post-emergence herbicidal evaluation, AMATA; type: in vivo
[6] = test system: Hordeum vulgare; test: Pre-emergence herbicidal evaluation, HORVW; type: in vivo
Description: as §1

[7] = test system: Oryza sativum; test: Pre-emergence herbicidal evaluation, ORYSA; type: in vivo
Description: as §1

[8] = test system: Triticum aestivum; test: Pre-emergence herbicidal evaluation, TRZAW; type: in vivo
Description: as §1

[9] = test system: Oryza sativum; test: Post-emergence herbicidal evaluation, ORYSA
[10] = test system: Amaranthus tuberculatus; test: Pre-emergence herbicidal evaluation, AMATA; type: in vivo
Description: as §1

[11] = test system: Setaria viridis; test: Post-emergence herbicidal evaluation, SETVI
[12] = test system: Glycine max; test: Post-emergence herbicidal evaluation, GLXMA
[13] = test system: Galium aparine; test: Pre-emergence herbicidal evaluation, GALAP; type: in vivo
Description: as §1

[14] = test system: Galium aparine; test: Post-emergence herbicidal evaluation, GALAP
[15] = test system: Lolium perenne; test: Pre-emergence herbicidal evaluation, LOLPE; type: in vivo
Description: as §1

[16] = test system: Setaria viridis; test: Pre-emergence herbicidal evaluation, SETVI; type: in vivo
Description: as §1

[17] = test system: Apera spica venti; test: Post-emergence herbicidal evaluation, APESV
[18] = test system: Alopecurus myosuroides; test: Post-emergence herbicidal evaluation, ALOMY
[19] = test system: Alopecurus myosuroides; test: Pre-emergence herbicidal evaluation, ALOMY; type: in vivo
Description: as §1

[20] = test system: Triticum aestivum; test: Post-emergence herbicidal evaluation, TRZAW
[21] = test system: Zea mays; test: Pre-emergence herbicidal evaluation, ZEAMX; type: in vivo
Description: as §1

[22] = test system: Echinochloa crus-galli; test: Post-emergence herbicidal evaluation, ECHCG
[23] = test system: Echinochloa crus-galli; test: Pre-emergence herbicidal evaluation, ECHCG; type: in vivo
Description: as §1

[24] = test system: Glycine max; test: Pre-emergence herbicidal evaluation, GLXMA; type: in vivo
Description: as §1

`CC1=CC(N(C(=O)COc2nnc(C(F)(F)F)s2)C(C)C)=CC(C)(C)C1` [Example 4] was tested, and the “phytotoxicity rating LOLPE” value ([1]; 0.100 kg/ha) was 5 (5 - Definite injury), the “phytotoxicity rating LOLPE” value ([1]; 0.200 kg/ha) was 7 (7 - Good herbicidal effect) and the “phytotoxicity rating LOLPE” value ([1]; 0.400 kg/ha) was 8 (8 - Approaching complete kill). The “phytotoxicity rating HORVW” value ([2]; 0.100 kg/ha) was 0 (0 - No effect), the “phytotoxicity rating HORVW” value ([2]; 0.200 kg/ha) was 1 (1 - Trace effect) and the “phytotoxicity rating HORVW” value ([2]; 0.400 kg/ha) was 2 (2 - Slight effect). For the same compound, the “phytotoxicity rating APESV” value ([3]; 0.100 kg/ha) was 9 (9 - Complete kill), the “phytotoxicity rating APESV” value ([3]; 0.200 kg/ha) was 9 (9 - Complete kill) and the “phytotoxicity rating APESV” value ([3]; 0.400 kg/ha) was 9 (9 - Complete kill). The “phytotoxicity rating APESV” value ([3]; 0.800 kg/ha) was 9 (9 - Complete kill), the “phytotoxicity rating ZEAMX” value ([4]; 0.100 kg/ha) was 0 (0 - No effect) and the “phytotoxicity rating ZEAMX” value ([4]; 0.200 kg/ha) was 0 (0 - No effect). The “phytotoxicity rating ZEAMX” value ([4]; 0.400 kg/ha) was 0 (0 - No effect), the “phytotoxicity rating AMATA” value ([5]; 0.100 kg/ha) was 1 (1 - Trace effect) and the “phytotoxicity rating AMATA” value ([5]; 0.200 kg/ha) was 1 (1 - Trace effect). The “phytotoxicity rating AMATA” value ([5]; 0.400 kg/ha) was 4 (4 - Injury), the “phytotoxicity rating HORVW” value ([6]; 0.100 kg/ha) was 0 (0 - No effect) and the “phytotoxicity rating HORVW” value ([6]; 0.200 kg/ha) was 0 (0 - No effect). For the same compound, the “phytotoxicity rating HORVW” value ([6]; 0.400 kg/ha) was 1 (1 - Trace effect), the “phytotoxicity rating HORVW” value ([6]; 0.800 kg/ha) was 4 (4 - Injury) and the “phytotoxicity rating ORYSA” value ([7]; 0.100 kg/ha) was 3 (3 - Moderate effect). For the same compound, the “phytotoxicity rating ORYSA” value ([7]; 0.200 kg/ha) was 4 (4 - Injury), the “phytotoxicity rating ORYSA” value ([7]; 0.400 kg/ha) was 5 (5 - Definite injury) and the “phytotoxicity rating ORYSA” value ([7]; 0.800 kg/ha) was 5 (5 - Definite injury). For the same compound, the “phytotoxicity rating TRZAW” value ([8]; 0.100 kg/ha) was 0 (0 - No effect), the “phytotoxicity rating TRZAW” value ([8]; 0.200 kg/ha) was 0 (0 - No effect) and the “phytotoxicity rating TRZAW” value ([8]; 0.400 kg/ha) was 1 (1 - Trace effect). The “phytotoxicity rating TRZAW” value ([8]; 0.800 kg/ha) was 4 (4 - Injury), the “phytotoxicity rating ORYSA” value ([9]; 0.100 kg/ha) was 0 (0 - No effect) and the “phytotoxicity rating ORYSA” value ([9]; 0.200 kg/ha) was 1 (1 - Trace effect). The “phytotoxicity rating ORYSA” value ([9]; 0.400 kg/ha) was 1 (1 - Trace effect), the “phytotoxicity rating AMATA” value ([10]; 0.100 kg/ha) was 6 (6 - Herbicidal effect) and the “phytotoxicity rating AMATA” value ([10]; 0.200 kg/ha) was 6 (6 - Herbicidal effect). The “phytotoxicity rating AMATA” value ([10]; 0.400 kg/ha) was 8 (8 - Approaching complete kill), the “phytotoxicity rating AMATA” value ([10]; 0.800 kg/ha) was 8 (8 - Approaching complete kill) and the “phytotoxicity rating SETVI” value ([11]; 0.100 kg/ha) was 3 (3 - Moderate effect). For the same compound, the “phytotoxicity rating SETVI” value ([11]; 0.200 kg/ha) was 5 (5 - Definite injury), the “phytotoxicity rating SETVI” value ([11]; 0.400 kg/ha) was 5 (5 - Definite injury) and the “phytotoxicity rating GLXMA” value ([12]; 0.100 kg/ha) was 2 (2 - Slight effect). For the same compound, the “phytotoxicity rating GLXMA” value ([12]; 0.200 kg/ha) was 4 (4 - Injury), the “phytotoxicity rating GLXMA” value ([12]; 0.400 kg/ha) was 6 (6 - Herbicidal effect) and the “phytotoxicity rating GALAP” value ([13]; 0.100 kg/ha) was 0 (0 - No effect). For the same compound, the “phytotoxicity rating GALAP” value ([13]; 0.200 kg/ha) was 0 (0 - No effect), the “phytotoxicity rating GALAP” value ([13]; 0.400 kg/ha) was 2 (2 - Slight effect) and the “phytotoxicity rating GALAP” value ([13]; 0.800 kg/ha) was 3 (3 - Moderate effect). The “phytotoxicity rating GALAP” value ([14]; 0.100 kg/ha) was 0 (0 - No effect), the “phytotoxicity rating GALAP” value ([14]; 0.200 kg/ha) was 0 (0 - No effect) and the “phytotoxicity rating GALAP” value ([14]; 0.400 kg/ha) was 2 (2 - Slight effect). For the same compound, the “phytotoxicity rating LOLPE” value ([15]; 0.100 kg/ha) was 8 (8 - Approaching complete kill), the “phytotoxicity rating LOLPE” value ([15]; 0.200 kg/ha) was 9 (9 - Complete kill) and the “phytotoxicity rating LOLPE” value ([15]; 0.400 kg/ha) was 9 (9 - Complete kill). For the same compound, the “phytotoxicity rating LOLPE” value ([15]; 0.800 kg/ha) was 9 (9 - Complete kill), the “phytotoxicity rating SETVI” value ([16]; 0.100 kg/ha) was 6 (6 - Herbicidal effect) and the “phytotoxicity rating SETVI” value ([16]; 0.200 kg/ha) was 6 (6 - Herbicidal effect). The “phytotoxicity rating SETVI” value ([16]; 0.400 kg/ha) was 6 (6 - Herbicidal effect), the “phytotoxicity rating SETVI” value ([16]; 0.800 kg/ha) was 9 (9 - Complete kill) and the “phytotoxicity rating APESV” value ([17]; 0.100 kg/ha) was 2 (2 - Slight effect). For the same compound, the “phytotoxicity rating APESV” value ([17]; 0.200 kg/ha) was 8 (8 - Approaching complete kill), the “phytotoxicity rating APESV” value ([17]; 0.400 kg/ha) was 8 (8 - Approaching complete kill) and the “phytotoxicity rating ALOMY” value ([18]; 0.100 kg/ha) was 4 (4 - Injury). For the same compound, the “phytotoxicity rating ALOMY” value ([18]; 0.200 kg/ha) was 8 (8 - Approaching complete kill), the “phytotoxicity rating ALOMY” value ([18]; 0.400 kg/ha) was 8 (8 - Approaching complete kill) and the “phytotoxicity rating ALOMY” value ([19]; 0.100 kg/ha) was 7 (7 - Good herbicidal effect). For the same compound, the “phytotoxicity rating ALOMY” value ([19]; 0.200 kg/ha) was 7 (7 - Good herbicidal effect), the “phytotoxicity rating ALOMY” value ([19]; 0.400 kg/ha) was 7 (7 - Good herbicidal effect) and the “phytotoxicity rating ALOMY” value ([19]; 0.800 kg/ha) was 9 (9 - Complete kill). For the same compound, the “phytotoxicity rating TRZAW” value ([20]; 0.100 kg/ha) was 0 (0 - No effect), the “phytotoxicity rating TRZAW” value ([20]; 0.200 kg/ha) was 1 (1 - Trace effect) and the “phytotoxicity rating TRZAW” value ([20]; 0.400 kg/ha) was 3 (3 - Moderate effect). For the same compound, the “phytotoxicity rating ZEAMX” value ([21]; 0.100 kg/ha) was 0 (0 - No effect), the “phytotoxicity rating ZEAMX” value ([21]; 0.200 kg/ha) was 1 (1 - Trace effect) and the “phytotoxicity rating ZEAMX” value ([21]; 0.400 kg/ha) was 1 (1 - Trace effect). For the same compound, the “phytotoxicity rating ZEAMX” value ([21]; 0.800 kg/ha) was 4 (4 - Injury), the “phytotoxicity rating ECHCG” value ([22]; 0.100 kg/ha) was 3 (3 - Moderate effect) and the “phytotoxicity rating ECHCG” value ([22]; 0.200 kg/ha) was 6 (6 - Herbicidal effect). The “phytotoxicity rating ECHCG” value ([22]; 0.400 kg/ha) was 6 (6 - Herbicidal effect), the “phytotoxicity rating ECHCG” value ([23]; 0.100 kg/ha) was 6 (6 - Herbicidal effect) and the “phytotoxicity rating ECHCG” value ([23]; 0.200 kg/ha) was 9 (9 - Complete kill). The “phytotoxicity rating ECHCG” value ([23]; 0.400 kg/ha) was 9 (9 - Complete kill), the “phytotoxicity rating ECHCG” value ([23]; 0.800 kg/ha) was 9 (9 - Complete kill) and the “phytotoxicity rating GLXMA” value ([24]; 0.100 kg/ha) was 0 (0 - No effect). For the same compound, the “phytotoxicity rating GLXMA” value ([24]; 0.200 kg/ha) was 0 (0 - No effect), the “phytotoxicity rating GLXMA” value ([24]; 0.400 kg/ha) was 0 (0 - No effect) and the “phytotoxicity rating GLXMA” value ([24]; 0.800 kg/ha) was 1 (1 - Trace effect).
